Experimental data reported in patent US20030124023A1, “Method of sterilizing heart valves” (priority 2001, published 2003).

Legend:
[1] = Solubility of coumaric acid in DMSO/water (50% DMSO); assay type: physicochemical
Protocol: All stabilizers were prepared so that the final concentration of DMSO was 50%. Dissolve 34.7 mg in 106 μl DMSO, pH ≈3.0 138 μl H2O was added.

physchem = assay: physchem
Protocol: A. Preparation of Stabilizer Solutions:
The 0.5 M solution was not soluble; therefore an additional 2 ml of PPG was added.
An additional 1 ml PPG was added and further water bath sonicated.
The 0.5M solution was soluble after a 20-30 minute water bath sonication.
Very soluble after 10 minute water bath sonication.

[2] = test system: porcine heart valve cusps; assay: Example 2: quantification of collagen crosslinks (pyd) by HPLC after gamma irradiation
Protocol: In this experiment, the effects of gamma irradiation were determined on porcine heart valve cusps in the presence of 50% DMSO and, optionally, a stabilizer, and in the presence of polypropylene glycol 400 (PPG400). 1.6 ml of a solution (stabilizer mixture or PPG400) was added to each sample and then the sample was incubated at 4° C. for 2.5 days. Valves and 1 ml of the solution in which they were incubated were then transferred into 2 ml irradiation vials. Each sample was irradiated with gamma irradiation at a rate of 1.723 kGy/hr at 3.6° C. to a total dose of 25 kGy. 3. Weighed the samples, transferred them to hydrolysis vials and then added 6 N HCl at a volume of 20 mg tissue/ml HCl: 5. Samples were hydrolyzed at 110° C. for approximately 23 hours. 13. Eluted crosslinks with 5 ml 2 N HCl into a low binding tube. 50 ml 2 N HCl:8.6 ml concentrated HCl adjusted to a volume of 50 ml with Nerl H2O. 1. Prepared 100-200 μl 1× solution in 1% heptafluorobutyric acid (HFBA). 2. Injected 50 μl on C18 HPLC column equilibrated with mobile phase. 3. Spectrofluorometer was set for excitation at 295 nm and emission at 395 nm. 4. Calculated the integrated fluorescence of Internal-Pyridinoline (Int-Pyd) per 1 μl of 1× solution of Int-Pyd.

[3] = test system: porcine AV heart valve cusps; assay: Example 3: HPLC analysis of frozen gamma irradiated AV heart valve cusps; conditions: 30 kGy, 1.584 kGy/hr, −20° C.
Protocol: In this experiment, frozen porcine AV heart valves soaked in various solvents were gamma irradiated to a total dose of 30 kGy at 1.584 kGy/hr at −20° C. 5. Added 1.0 ml of the following to two of each of two tubes: dPBS, 50% DMSO and 50% DMSO with 200 mM sodium ascorbate (2M sodium ascorbate stock was diluted as follows: 400 μl (2M)+1.6 ml water+2ml 100% DMSO). 6. Incubated tubes at 4° C. with nutating for ˜46 hours. 8. All vials were frozen on dry ice. 9. Frozen samples were then irradiated at −20° C. at a rate of 1.584 kGy/hr to a total dose of 30 kGy.

Q: For `O=C(O)/C=C/c1ccc(O)cc1` [Coumaric Acid], which “solubility in DMSO after addition of H2O” value ([1]; 34.7 mg in 106 μl DMSO, pH ≈3.0, 138 μl H2O added) is on record?
A: precipitated out of solution

Q: And the “solubility in DMSO/H2O after pH adjustment” value ([1]; pH adjusted to 7.5 with 1 N NaOH)?
A: went back into solution

Q: And the “solubility of stabilizer stock in PPG” value (physchem)?
A: not 100% soluble

Q: Which results are given for `C[S+](C)[O-]` [DMSO, dimethylsulfoxide]?
A: Area of Pyd Peak ([2]; 0 kGy (not irradiated)): 87880; Area of Pyd Peak ([2]; 25 kGy, 1.723 kGy/hr, 3.6° C.): 49030; HPLC profile, irradiated versus not irradiated ([2]; 25 kGy, 1.723 kGy/hr, 3.6° C., DMSO at 50%): less effective; HPLC profile, irradiated versus not irradiated ([3]; 20% DMSO): reproduced these peaks more faithfully; HPLC profile, irradiated versus not irradiated ([3]; 50% DMSO): slightly more effective

Q: What does the source list for `Cc1c(C)c2c(c(C)c1O)CCC(C)(C(=O)O)O2` (centres unmarked) [Trolox C, 6-hydroxy-2,5,7,8-tetramethylchroma-2 carboxylic acid]?
A: solubility of stabilizer stock in PPG (physchem): not soluble; solubility (physchem; 25 °C, organic solvent or mixture, thermodynamic from solid): ≥ 125 mM

Q: Which “solubility of stabilizer stock in PPG” value (physchem) does the source give for `CCCOC(=O)c1cc(O)c(O)c(O)c1` [n-Propyl Gallate] here?
A: soluble
